Counter-ions that a name gives are not always drawn.
What was measured:
α2δ subunit = assay: radioligand binding assay using [3H]gabapentin and the α2δ subunit; details: [3H]gabapentin radioligand; α2δ subunit from porcine brain tissue
[1] = test system: carrageenan-induced hyperalgesia model; assay: Carrageenin-induced hyperalgesia, rat paw pressure test (Randall-Selitto); type: in vivo; details: dosed orally at 30 mg/kg
Description: Carrageenin-Induced Hyperalgesia
Nociceptive pressure thresholds were measured in the rat paw pressure test using an analgesimeter (Randall-Selitto method: Randall L. O. and Selitto J. J., “A method for measurement of analgesic activity on inflamed tissue,” Arch. Int. Pharmacodyn., 1957;4:409-419). Male Sprague-Dawley rats (70-90 g) were trained on this apparatus before the test day. Pressure was gradually applied to the hind paw of each rat and nociceptive thresholds were determined as the pressure (g) required to elicit paw withdrawal. A cutoff point of 250 g was used to prevent any tissue damage to the paw. On the test day, two to three baseline measurements were taken before animals were administered 100 μL of 2% carrageenin by intraplantar injection into the right hind paw.
(R)-2-Aza-spiro[4.5]decane-4-carboxylic acid hydrochloride was tested in the above carrageenan-induced hyperalgesia model. The compound was dosed orally at 30 mg/kg, and 1 hour postdose gave a percent of maximum possible effect ([…]) of 53%. At 2 hours postdose, it gave only 4.6% of MPE.

Row | Structure (SMILES) | α2δ binding affinity (α2δ subunit) | percent of maximum possible effect (APE) ([1]; 1 hour postdose) | % of MPE ([1]; 2 hours postdose)
1 | NCC1(CC(=O)O)C[C@H]2CCC[C@@H]2C1 (racemic) [(±)-(1α,5β)(2-Aminomethyl-octahydro-pentalen-2-yl)-acetic Acid Hydrochloride] | >10 µM | – | –
2 | NC[C@@]1(CC(=O)O)C[C@H]2CCCC[C@H]2C1 [((1α,6α,8β)(2-Aminomethyl-octahydro-inden-2-yl)-acetic Acid Hydrochloride] | >10 µM | – | –
3 | NC[C@]1(CC(=O)O)C[C@H]2CC[C@H]2C1 [(1α,3α,5α)(3-Aminomethyl-bicyclo[3.2.0]hept-3-yl)-acetic Acid Hydrochloride] | 0.038 µM | – | –
4 | NCC1(CC(=O)O)C[C@H]2CCCC[C@@H]2C1 (racemic) [(±)-(1α,6β)(2-Aminomethyl-octahydro-inden-2-yl)-acetic Acid Hydrochloride] | >10 µM | – | –
5 | Cl.O=C(O)[C@H]1CNCC12CCCCC2 [(R)-2-Aza-spiro[4.5]decane-4-carboxylic acid hydrochloride] | – | 53% | 4.6%
6 | NC[C@]1(CC(=O)O)C[C@H]2CCC[C@H]2C1 [(1α,3α,5α)(2-Aminomethyl-octahydro-pentalen-2-yl)-acetic Acid Hydrochloride] | 1.58 µM | – | –
7 | NCC1(CC(=O)O)C[C@H]2CC[C@@H]2C1 (racemic) [(±)-(1α,5β)(3-aminomethyl-bicyclo[3.2.0]hept-3-yl)-ascetic Acid Hydrochloride] | 2.86 µM | – | –
8 | NC[C@@]1(CC(=O)O)C[C@H]2CC[C@H]2C1 [(1α,3β,5α)(3-Aminomethyl-bicyclo[3.2.0]hept-3-yl)-acetic acid hydrochloride] | 0.332 µM | – | –
9 | NC[C@]1(CC(=O)O)C[C@H]2CCCC[C@H]2C1 [(1α,6α,8α)(2-Aminomethyl-octahydro-inden-2-yl)-acetic acid hydrochloride] | 0.72 µM | – | –

Source: patent US6835751B2, “Bicyclic amino acids as pharmaceutical agents” (Warner-Dambert Company LLC, priority 1999, dated 2004)
